Assay results taken from patent publication US5434133A, “CNP analog peptides and their use” (Suntory Limited, priority 1991, dated 1995).
“Also recorded” adds a separate entry of the source. Where a SMILES comes first, the peptide text is derived from it. Bridges are numbered along the chain shown (N, C = ends). Where no end group is shown, it is not given here. [ ]: non-standard residue; d: D form. Cha = N[C@@H](CC1CCCCC1)C(=O)O

Columns and labels:
[1] = system: cultured vascular smooth muscle cells (VSMC) derived from the aortas of rats; test: cGMP producing activity in cultured VSMC (cGMP radioimmunoassay); assay type: cell-based, rat; settings: for cGMP producing activity (in words): comparison with CNP-22 or α-hANP; for cGMP producing activity (% increase for 1 μm): specific activity compared to 1 μm α-hANP (2000 fmol/400000 cells) = 100, peptide at 1 μm
Method: 1-1: Measurement of CGMP Producing Activity
The above-mentioned activity of compounds synthesized according to the present invention was measured by the methods of Hirata et al. (Biochem. Biophys. Res. Commun., 128, 538, 1985) and Scarborough et al. (J. Biol. Chem., 261, 12960, 1986). The cells used were cultured vascular smooth muscle cells (hereunder abbreviated as VSMC) derived from the aortas of rats. From 10^-9 to 10^-6 M of α-hANP or a 20 peptide of interest was incubated together with VSMC and the amount cGMP produced was measured by cGMP radioimmunoassay. Percent maximum reactivity for each peptide, with the value of maximum reactivity for α-hANP being taken as 100%, was used as an indicator of activity.

[2] = system: cultured vascular smooth muscle cells (VSMC) derived from the aortas of rats; test: Cell growth suppressing activity: [3H] thymidine uptake (DNA synthesis inhibition) in VSMC; assay type: cell-based, rat; settings: 0.1 μm of each peptide; BSMC line stimulated with PDGF (20 ng/ml)
Method: 1-2: Measurement of Cell Growth Suppressing Activity
Cell growth suppressing activity was evaluated in accordance with the method of Kariya et al. (Atherosclerosis, 80, 143-147, 1990) by measuring the uptake of [^3 H] thymidine into cells as an indicator of percent DNA synthesis inhibition using the above-identified VSMC. Cells tuned to a stationary phase were incubated at 37° C. for 14 h with each sample added in the presence of 1% serum or 20 ng/ml of PDGF (platelet derived growth factor). Then, following the addition of 37 kBq/ml of [^3 H] thymidine, the incubation was continued for another 4 h and the radioactivity of [^3 H] thymidine incorporated into the cells was measured. The values of measurement were such that the uptake of [^3 H] thymidine for the case where only 1% serum or PDGF was added in the absence of peptide was taken as 100%, with the percent suppression due to the peptide addition being accordingly calculated.

In the case of `CC[C@H](C)[C@@H]1NC(=O)[C@H](CCCNC(=N)N)NC(=O)[C@H](CC(=O)O)NC(=O)[C@H](CCSC)NC(=O)[C@H](CCCNC(=N)N)NC(=O)CNC(=O)CNC(=O)[C@H](Cc2ccccc2)NC(=O)[C@@H](NC(=O)[C@H](CO)NC(=O)[C@H](CO)NC(=O)[C@H](CCCNC(=N)N)NC(=O)[C@H](CCCNC(=N)N)NC(=O)[C@H](CC(C)C)NC(=O)[C@@H](N)CO)CSSC[C@@H](C(=O)O)NC(=O)CNC(=O)[C@H](CC(C)C)NC(=O)CNC(=O)[C@H](CO)NC(=O)[C@H](CCC(N)=O)NC(=O)[C@H](C)NC(=O)CNC1=O` [Compound 1], the “cGMP producing activity (in words)” value ([1]; rat VSMC) is reported as “only a weak cGMP producing activity at a level comparable to α-hANP” and the “cGMP producing activity (% increase for 1 μm)” value [1] is reported as 62%.
For `CC[C@H](C)[C@@H]1NC(=O)[C@H](CCCNC(=N)N)NC(=O)[C@H](CC(=O)O)NC(=O)[C@H](CCSC)NC(=O)[C@H](CCCNC(=N)N)NC(=O)CNC(=O)CNC(=O)[C@H](Cc2ccccc2)NC(=O)[C@@H](NC(=O)CNC(=O)[C@H](CCCCN)NC(=O)[C@H](CO)NC(=O)[C@H](CC(C)C)NC(=O)CN)CSSC[C@@H](C(=O)N[C@@H](CC(N)=O)C(=O)N[C@@H](CO)C(=O)N[C@@H](Cc2ccccc2)C(=O)N[C@@H](CCCNC(=N)N)C(=O)N[C@@H](Cc2ccc(O)cc2)C(=O)O)NC(=O)[C@H](CCC(=O)O)NC(=O)[C@H](CC(C)C)NC(=O)[C@H](CCC(=O)O)NC(=O)[C@H](CO)NC(=O)[C@H](CCC(N)=O)NC(=O)[C@H](C)NC(=O)CNC1=O` [Compound 2, H-Gly-Leu-Ser-Lys-Gly-Cys-Phe-Gly-Gly-Arg-Met-Asp-Arg-Ile-Gly-Ala-Gln-Ser- Glu-Leu-Glu-Cys-Asn-Ser-Phe-Arg-Tyr-OH] (H-GLSKGCFGGRMDRIGAQSELECNSFRY-OH; disulfide 6-22), the “cGMP producing activity (in words)” value ([1]; rat VSMC) was “only a weak cGMP producing activity at a level comparable to α-hANP”, the “cGMP producing activity (% increase for 1 μm)” value [1] was 147% and the “% Inhibition of 3H-thymidine uptake” value [2] was 38%.
In the case of `CC[C@H](C)[C@@H]1NC(=O)[C@H](CCCNC(=N)N)NC(=O)[C@H](CC(=O)O)NC(=O)[C@H](CC(C)C)NC(=O)[C@H](CCCCN)NC(=O)[C@H](CC(C)C)NC(=O)CNC(=O)[C@H](Cc2ccccc2)NC(=O)[C@@H](NC(=O)CNC(=O)[C@H](CCCCN)NC(=O)[C@H](CO)NC(=O)[C@H](CC(C)C)NC(=O)CN)CSSC[C@@H](C(=O)N[C@@H](CC(N)=O)C(=O)N[C@@H](CO)C(=O)N[C@@H](Cc2ccccc2)C(=O)N[C@@H](CCCNC(=N)N)C(=O)N[C@@H](Cc2ccc(O)cc2)C(=O)O)NC(=O)CNC(=O)[C@H](CC(C)C)NC(=O)CNC(=O)[C@H](CO)NC(=O)[C@H](CCSC)NC(=O)[C@H](CO)NC(=O)CNC1=O` [Compound 3], the “cGMP producing activity (in words)” value ([1]; rat VSMC) is reported as “strong cGMP producing activity at a comparable level to that exhibited by CNP-22” and the “cGMP producing activity (% increase for 1 μm)” value [1] is reported as 667%.
`CC[C@H](C)[C@@H]1NC(=O)[C@H](CCCNC(=N)N)NC(=O)[C@H](CC(=O)O)NC(=O)[C@H](CC(C)C)NC(=O)[C@H](CCCCN)NC(=O)[C@H](CC(C)C)NC(=O)CNC(=O)[C@H](Cc2ccccc2)NC(=O)[C@@H](NC(=O)[C@H](CO)NC(=O)[C@H](CO)NC(=O)[C@H](CCCNC(=N)N)NC(=O)[C@H](CCCNC(=N)N)NC(=O)[C@H](CC(C)C)NC(=O)[C@@H](N)CO)CSSC[C@@H](C(=O)O)NC(=O)CNC(=O)[C@H](CC(C)C)NC(=O)CNC(=O)[C@H](CO)NC(=O)[C@H](CCSC)NC(=O)[C@H](CO)NC(=O)CNC1=O` [Compound 4] (H-SLRRSSCFGLKLDRIGSMSGLGC-OH; disulfide 7-23) was tested, and the “cGMP producing activity (in words)” value ([1]; rat VSMC) was “strong cGMP producing activity at a comparable level to that exhibited by CNP-22” and the “cGMP producing activity (% increase for 1 μm)” value [1] was 663%.
In the case of `CC[C@H](C)[C@@H]1NC(=O)[C@H](CCCNC(=N)N)NC(=O)[C@H](CC(=O)O)NC(=O)[C@H](CC(C)C)NC(=O)[C@H](CCCCN)NC(=O)[C@H](CC(C)C)NC(=O)CNC(=O)[C@H](Cc2ccccc2)NC(=O)[C@@H](N)CSSC[C@@H](C(=O)O)NC(=O)CNC(=O)[C@H](CC(C)C)NC(=O)CNC(=O)[C@H](CO)NC(=O)[C@H](CCSC)NC(=O)[C@H](CO)NC(=O)CNC1=O` [Compound 5, CFGLKLDRIGSMSGLGC] (H-CFGLKLDRIGSMSGLGC-OH; disulfide 1-17), the “cGMP producing activity (in words)” value ([1]; rat VSMC) is reported as “strong cGMP producing activity at a comparable level to that exhibited by CNP-22”, the “cGMP producing activity (% increase for 1 μm)” value [1] is reported as 616% and the “% Inhibition of 3H-thymidine uptake” value [2] is reported as 65%.
With `CC[C@H](C)[C@@H]1NC(=O)[C@H](CCCNC(=N)N)NC(=O)[C@H](CC(=O)O)NC(=O)[C@H](CCSC)NC(=O)[C@H](CCCCN)NC(=O)CNC(=O)CNC(=O)[C@H](Cc2ccccc2)NC(=O)[C@@H](NC(=O)CNC(=O)[C@H](CCCCN)NC(=O)[C@H](CO)NC(=O)[C@H](CC(C)C)NC(=O)CN)CSSC[C@@H](C(=O)O)NC(=O)CNC(=O)[C@H](CC(C)C)NC(=O)CNC(=O)[C@H](CO)NC(=O)[C@H](CCSC)NC(=O)[C@H](CO)NC(=O)CNC1=O` [Compound 11] (H-GLSKGCFGGKMDRIGSMSGLGC-OH; disulfide 6-22) the “cGMP producing activity (in words)” value ([1]; rat VSMC) was “particularly marked; also recorded: lower in cGMP producing activity than the other one- and two-residue substituted derivatives” and the “cGMP producing activity (% increase for 1 μm)” value [1] was 71%.
With `CC[C@H](C)[C@@H]1NC(=O)[C@H](CCCNC(=N)N)NC(=O)[C@H](CC(=O)O)NC(=O)[C@H](CCSC)NC(=O)[C@H](CCCNC(=N)N)NC(=O)[C@H](CC(C)C)NC(=O)CNC(=O)[C@H](Cc2ccccc2)NC(=O)[C@@H](NC(=O)CNC(=O)[C@H](CCCCN)NC(=O)[C@H](CO)NC(=O)[C@H](CC(C)C)NC(=O)CN)CSSC[C@@H](C(=O)O)NC(=O)CNC(=O)[C@H](CC(C)C)NC(=O)CNC(=O)[C@H](CO)NC(=O)[C@H](CCSC)NC(=O)[C@H](CO)NC(=O)CNC1=O` [Compound 12] (H-GLSKGCFGLRMDRIGSMSGLGC-OH; disulfide 6-22) the “cGMP producing activity (% increase for 1 μm)” value [1] was 273%.
With `CC[C@H](C)[C@@H]1NC(=O)[C@H](CCCNC(=N)N)NC(=O)[C@H](CC(=O)O)NC(=O)[C@H](CC(C)C)NC(=O)[C@H](CCCNC(=N)N)NC(=O)CNC(=O)CNC(=O)[C@H](Cc2ccccc2)NC(=O)[C@@H](NC(=O)CNC(=O)[C@H](CCCCN)NC(=O)[C@H](CO)NC(=O)[C@H](CC(C)C)NC(=O)CN)CSSC[C@@H](C(=O)O)NC(=O)CNC(=O)[C@H](CC(C)C)NC(=O)CNC(=O)[C@H](CO)NC(=O)[C@H](CCSC)NC(=O)[C@H](CO)NC(=O)CNC1=O` [Compound 13] (H-GLSKGCFGGRLDRIGSMSGLGC-OH; disulfide 6-22) the “cGMP producing activity (% increase for 1 μm)” value [1] was 58%.
In the case of `CC[C@H](C)[C@H](NC(=O)[C@H](CCCNC(=N)N)NC(=O)[C@H](CC(=O)O)NC(=O)[C@H](CC(C)C)NC(=O)[C@H](CCCCN)NC(=O)[C@H](CC(C)C)NC(=O)CNC(=O)[C@H](Cc1ccccc1)NC(=O)[C@H](CSC)NC(=O)CNC(=O)[C@H](CCCCN)NC(=O)[C@H](CO)NC(=O)[C@H](CC(C)C)NC(=O)CN)C(=O)NCC(=O)N[C@@H](CO)C(=O)N[C@@H](CCSC)C(=O)N[C@@H](CO)C(=O)NCC(=O)N[C@@H](CC(C)C)C(=O)NCC(=O)N[C@@H](CSC)C(=O)O` [Compound 19, H-Gly-Leu-Ser-Lys-Gly-Cys(Me)-Phe-Gly-Leu-Lys-Leu-Asp-Arg-Ile-Gly-Ser-Met- Ser-Gly-Leu-Gly-Cys(Me)-OH], the “cGMP producing activity (in words)” value ([1]; rat VSMC) is reported as “hardly reduced the cGMP producing activity” and the “cGMP producing activity (% increase for 1 μm)” value [1] is reported as 38%.
`CC[C@H](C)[C@@H]1NC(=O)[C@H](CCCNC(=N)N)NC(=O)[C@H](CC(=O)O)NC(=O)[C@H](CC(C)C)NC(=O)[C@H](CCCCN)NC(=O)[C@H](CC(C)C)NC(=O)CNC(=O)[C@H](CC2CCCCC2)NC(=O)[C@@H](N)CSSC[C@@H](C(=O)N[C@@H](CC(N)=O)C(=O)N[C@@H](CO)C(=O)N[C@@H](Cc2ccccc2)C(=O)N[C@@H](CCCNC(=N)N)C(=O)N[C@@H](Cc2ccc(O)cc2)C(=O)O)NC(=O)CNC(=O)[C@H](CC(C)C)NC(=O)CNC(=O)[C@H](CO)NC(=O)[C@H](CCC(N)=O)NC(=O)[C@H](C)NC(=O)CNC1=O` [Compound 27] (H-C[Cha]GLKLDRIGAQSGLGCNSFRY-OH; disulfide 1-17) was tested, and the “cGMP producing activity relative to α-hANP” value ([1]; rat VSMC, times as high activity as α-hANP) was 4-6 times and the “cGMP producing activity (% increase for 1 μm)” value [1] was 523%.
GLSKGCpC1FGLKLDRIGSMSGLGC [Compound 16] was tested, and the “cGMP producing activity (in words)” value ([1]; rat VSMC) was “stronger activity than CNP-22” and the “cGMP producing activity (% increase for 1 μm)” value [1] was 688%.
For “pCNP-53: porcine CNP-53, CNP-22 with 31 amino acid residues attached to the N-terminus (DLRVDTKSRAAWARLLHEHPNARKYKGGNKKGLSKGCFGLKLDRIGSMSGLGC; disulfide 37-53 (inferred); ends not checked; UniProt P18104 74-126, looked up) [reference compound]”, the “cGMP producing activity (% increase for 1 μm)” value [1] was 524%.
